Measurements published in ChEMBL document CHEMBL1201862, “PubChem BioAssay data set” (2004).
The source made the active and inactive calls.

Assays:
[1] = biological target: Multidrug resistance protein CDR1 (Candida albicans, UniProt P43071); assay: CaCDR1 efflux pump inhibitors in yeast, dose response, S. cerevisiae AD1-8u, singleplex, Cherry Pick1 hits (AID 588606); format: functional
[2] = biological target: T1, Serine/threonine-protein phosphatase (Candida dubliniensis (strain CD36 / CBS 7987 / NCPF 3949 / NRRLY-17841) (Yeast), UniProt B9W6M3); assay: calcineurin pathway inhibitors in yeast reporter, dose response, S. cerevisiae, CDRE-lacZ, luminescence, secondary (AID 2388); format: functional, cell-based;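 also: yeast reporter cells carrying a calcineurin-responsive lacZ construct stimulated with calcium chloride; luminescent beta-galactosidase reporter signal in whole cells rather than isolated phosphatase activity; potency for inhibition where a drop in reporter signal means calcineurin blockade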
T1 sequence (B9W6M3 whole entry): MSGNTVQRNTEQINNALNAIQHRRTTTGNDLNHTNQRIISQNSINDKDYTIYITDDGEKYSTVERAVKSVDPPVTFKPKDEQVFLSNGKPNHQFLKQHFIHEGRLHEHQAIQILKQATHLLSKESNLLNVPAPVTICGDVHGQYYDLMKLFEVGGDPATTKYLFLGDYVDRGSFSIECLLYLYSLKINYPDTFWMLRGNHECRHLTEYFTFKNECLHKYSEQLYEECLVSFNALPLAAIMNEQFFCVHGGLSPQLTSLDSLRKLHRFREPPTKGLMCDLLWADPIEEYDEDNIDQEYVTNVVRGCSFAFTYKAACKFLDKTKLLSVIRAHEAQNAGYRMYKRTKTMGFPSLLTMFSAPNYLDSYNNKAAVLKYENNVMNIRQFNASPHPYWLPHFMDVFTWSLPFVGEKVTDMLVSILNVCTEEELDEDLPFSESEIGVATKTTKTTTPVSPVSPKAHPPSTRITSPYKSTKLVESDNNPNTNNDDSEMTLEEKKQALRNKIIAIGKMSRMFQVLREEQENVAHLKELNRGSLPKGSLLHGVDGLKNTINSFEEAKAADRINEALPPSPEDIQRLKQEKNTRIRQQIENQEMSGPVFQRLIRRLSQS

[3] = tested on: HeLa; assay: Cytotoxicity counterscreen assay for transcriptional activators of heat shock protein 70 (Hsp70). [Related pubchem assays: 1203, 1252 ]; format: functional; conditions: Homo sapiens;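 also: cells exposed to compound for 16 hours before readout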
[4] = biological target: Dual specificity tyrosine-phosphorylation-regulated kinase 1A (Homo sapiens, UniProt Q13627); format: functional;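 also: measured against DYRK1A as one member of a broad kinome profiling panel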
[5] = biological target: Serine/threonine-protein kinase pim-2 (Homo sapiens, UniProt Q9P1W9); format: functional;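 also: value comes from a broad kinase panel profiling study in which PIM2 was one of the panel members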
[6] = biological target: Tyrosine-protein kinase ITK/TSK (Homo sapiens, UniProt Q08881); format: functional;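 also: affinity for ITK measured as one member of a broad kinase panel profiling binding across the kinome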
[7] = biological target: Mitogen-activated protein kinase kinase kinase kinase 4 (Homo sapiens, UniProt O95819); format: functional
[8] = biological target: Serine/threonine-protein kinase PLK1 (Homo sapiens, UniProt P53350); format: functional;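 also: PLK1 measured as one member of a kinome-wide profiling panel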
Serine/threonine-protein kinase PLK1, sequence (P53350 whole entry): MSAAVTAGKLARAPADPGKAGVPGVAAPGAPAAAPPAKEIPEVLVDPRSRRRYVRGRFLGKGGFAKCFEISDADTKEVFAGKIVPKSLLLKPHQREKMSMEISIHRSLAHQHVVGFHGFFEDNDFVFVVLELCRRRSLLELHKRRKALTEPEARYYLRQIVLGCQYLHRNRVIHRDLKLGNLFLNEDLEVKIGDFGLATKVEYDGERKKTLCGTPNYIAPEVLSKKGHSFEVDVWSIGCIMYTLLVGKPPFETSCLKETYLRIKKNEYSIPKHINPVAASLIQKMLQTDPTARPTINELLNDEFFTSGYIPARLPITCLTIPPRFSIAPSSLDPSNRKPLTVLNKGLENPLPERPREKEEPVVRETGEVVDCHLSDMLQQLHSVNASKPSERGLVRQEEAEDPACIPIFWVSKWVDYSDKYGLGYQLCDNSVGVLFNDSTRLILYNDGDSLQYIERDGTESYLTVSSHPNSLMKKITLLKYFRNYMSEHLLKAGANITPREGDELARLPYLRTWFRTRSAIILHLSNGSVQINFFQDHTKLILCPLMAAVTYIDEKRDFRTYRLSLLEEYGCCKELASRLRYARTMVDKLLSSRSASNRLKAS

Multidrug resistance protein CDR1, sequence (P43071 whole entry, looked up): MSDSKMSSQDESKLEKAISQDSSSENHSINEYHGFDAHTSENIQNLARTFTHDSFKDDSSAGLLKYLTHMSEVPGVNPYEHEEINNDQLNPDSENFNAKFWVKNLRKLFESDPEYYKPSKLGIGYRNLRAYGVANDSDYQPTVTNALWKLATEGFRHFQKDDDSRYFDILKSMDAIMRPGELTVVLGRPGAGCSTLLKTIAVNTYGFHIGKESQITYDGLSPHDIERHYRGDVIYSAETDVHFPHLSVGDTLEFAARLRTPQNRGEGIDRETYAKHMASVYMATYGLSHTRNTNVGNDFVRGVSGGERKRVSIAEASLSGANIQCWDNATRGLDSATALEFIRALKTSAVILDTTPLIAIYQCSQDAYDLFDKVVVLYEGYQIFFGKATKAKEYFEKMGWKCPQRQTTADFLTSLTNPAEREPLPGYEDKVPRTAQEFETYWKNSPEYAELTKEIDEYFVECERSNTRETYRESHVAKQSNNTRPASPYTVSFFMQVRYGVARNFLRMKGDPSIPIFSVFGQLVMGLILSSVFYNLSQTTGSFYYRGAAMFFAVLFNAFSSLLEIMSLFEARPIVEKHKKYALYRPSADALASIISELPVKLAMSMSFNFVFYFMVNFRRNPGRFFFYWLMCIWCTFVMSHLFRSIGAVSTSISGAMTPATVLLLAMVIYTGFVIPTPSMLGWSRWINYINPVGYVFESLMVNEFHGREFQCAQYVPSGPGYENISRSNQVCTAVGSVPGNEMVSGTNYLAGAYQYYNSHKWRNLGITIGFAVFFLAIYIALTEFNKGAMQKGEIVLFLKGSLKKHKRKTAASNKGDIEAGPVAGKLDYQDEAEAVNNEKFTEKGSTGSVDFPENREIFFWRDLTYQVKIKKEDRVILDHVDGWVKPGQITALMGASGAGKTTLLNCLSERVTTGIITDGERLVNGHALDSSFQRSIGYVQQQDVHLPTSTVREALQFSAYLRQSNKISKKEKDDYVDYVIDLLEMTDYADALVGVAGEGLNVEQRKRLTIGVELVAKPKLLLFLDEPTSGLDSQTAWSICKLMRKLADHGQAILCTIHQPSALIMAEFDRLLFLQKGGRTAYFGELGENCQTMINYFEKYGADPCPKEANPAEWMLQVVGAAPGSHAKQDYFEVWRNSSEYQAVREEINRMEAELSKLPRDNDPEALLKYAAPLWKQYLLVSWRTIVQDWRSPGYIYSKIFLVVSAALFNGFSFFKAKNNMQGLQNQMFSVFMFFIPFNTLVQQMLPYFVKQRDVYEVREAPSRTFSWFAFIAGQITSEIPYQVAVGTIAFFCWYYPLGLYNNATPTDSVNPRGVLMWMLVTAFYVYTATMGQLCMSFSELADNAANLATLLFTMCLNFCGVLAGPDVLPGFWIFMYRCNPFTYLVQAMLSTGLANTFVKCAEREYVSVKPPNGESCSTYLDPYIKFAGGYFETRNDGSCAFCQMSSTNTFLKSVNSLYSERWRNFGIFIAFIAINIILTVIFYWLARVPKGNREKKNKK
Mitogen-activated protein kinase kinase kinase kinase 4, sequence (O95819 whole entry): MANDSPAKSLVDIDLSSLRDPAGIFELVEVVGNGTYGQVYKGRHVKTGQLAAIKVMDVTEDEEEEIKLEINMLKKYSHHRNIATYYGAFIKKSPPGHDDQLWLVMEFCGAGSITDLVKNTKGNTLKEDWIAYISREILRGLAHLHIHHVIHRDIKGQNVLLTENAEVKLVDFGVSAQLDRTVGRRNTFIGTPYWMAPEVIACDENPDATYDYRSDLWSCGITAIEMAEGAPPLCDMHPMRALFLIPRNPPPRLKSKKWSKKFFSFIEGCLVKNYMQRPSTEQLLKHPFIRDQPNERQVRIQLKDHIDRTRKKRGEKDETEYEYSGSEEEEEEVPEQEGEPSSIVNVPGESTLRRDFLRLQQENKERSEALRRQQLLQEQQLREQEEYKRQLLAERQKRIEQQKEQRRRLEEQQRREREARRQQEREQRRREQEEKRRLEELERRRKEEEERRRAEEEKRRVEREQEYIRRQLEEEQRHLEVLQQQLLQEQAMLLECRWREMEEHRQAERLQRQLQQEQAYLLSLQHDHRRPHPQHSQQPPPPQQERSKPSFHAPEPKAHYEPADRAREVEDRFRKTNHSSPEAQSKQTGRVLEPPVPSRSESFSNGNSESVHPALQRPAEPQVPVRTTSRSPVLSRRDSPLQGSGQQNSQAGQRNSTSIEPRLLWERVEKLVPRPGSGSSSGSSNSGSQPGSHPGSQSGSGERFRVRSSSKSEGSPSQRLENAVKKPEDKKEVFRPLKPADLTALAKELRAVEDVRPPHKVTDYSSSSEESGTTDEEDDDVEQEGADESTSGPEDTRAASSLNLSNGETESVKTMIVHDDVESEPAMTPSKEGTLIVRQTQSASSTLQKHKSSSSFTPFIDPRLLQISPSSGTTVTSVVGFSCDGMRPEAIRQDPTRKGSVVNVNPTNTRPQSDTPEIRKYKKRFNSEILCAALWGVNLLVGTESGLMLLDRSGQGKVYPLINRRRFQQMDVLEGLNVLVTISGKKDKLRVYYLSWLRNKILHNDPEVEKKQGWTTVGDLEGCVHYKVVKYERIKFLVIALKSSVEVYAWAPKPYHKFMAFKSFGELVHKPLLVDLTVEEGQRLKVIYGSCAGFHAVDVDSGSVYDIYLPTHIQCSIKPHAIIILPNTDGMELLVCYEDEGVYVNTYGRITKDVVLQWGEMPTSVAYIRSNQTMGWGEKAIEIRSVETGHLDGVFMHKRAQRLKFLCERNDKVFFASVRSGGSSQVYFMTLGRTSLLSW
Tyrosine-protein kinase ITK/TSK, sequence (Q08881 whole entry): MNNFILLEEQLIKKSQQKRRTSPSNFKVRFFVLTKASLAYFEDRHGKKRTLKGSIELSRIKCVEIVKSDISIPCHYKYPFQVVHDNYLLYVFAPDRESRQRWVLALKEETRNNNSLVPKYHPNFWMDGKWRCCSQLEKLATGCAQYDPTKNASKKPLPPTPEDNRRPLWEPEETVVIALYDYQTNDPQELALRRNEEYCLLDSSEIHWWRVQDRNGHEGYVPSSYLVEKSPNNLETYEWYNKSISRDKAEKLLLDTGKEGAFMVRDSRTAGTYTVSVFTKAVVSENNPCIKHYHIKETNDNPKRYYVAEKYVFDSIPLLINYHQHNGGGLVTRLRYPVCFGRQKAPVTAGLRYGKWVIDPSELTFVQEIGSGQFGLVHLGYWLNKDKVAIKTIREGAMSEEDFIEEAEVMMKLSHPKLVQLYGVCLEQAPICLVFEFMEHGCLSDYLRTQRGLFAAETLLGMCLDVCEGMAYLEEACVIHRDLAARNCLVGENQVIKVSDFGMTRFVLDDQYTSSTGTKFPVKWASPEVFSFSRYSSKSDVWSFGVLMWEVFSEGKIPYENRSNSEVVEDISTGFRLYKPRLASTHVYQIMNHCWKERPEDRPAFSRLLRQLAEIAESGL
Serine/threonine-protein kinase pim-2, sequence (Q9P1W9 whole entry): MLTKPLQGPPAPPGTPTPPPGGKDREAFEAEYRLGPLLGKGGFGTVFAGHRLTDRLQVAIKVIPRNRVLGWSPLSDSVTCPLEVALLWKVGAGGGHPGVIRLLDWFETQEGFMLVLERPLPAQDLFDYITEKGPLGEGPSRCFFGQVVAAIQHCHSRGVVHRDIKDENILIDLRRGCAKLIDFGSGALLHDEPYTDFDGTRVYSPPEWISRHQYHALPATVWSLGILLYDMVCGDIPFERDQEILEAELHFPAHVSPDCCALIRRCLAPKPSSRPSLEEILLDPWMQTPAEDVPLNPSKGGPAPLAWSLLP

**Q.** With `Cc1ccc2[nH]c(/C(C#N)=C/c3ccc(O)c(O)c3)nc2c1` as the molecule, how does the EC50 [1] read?
**A.** The EC50 was 13.4 µM (active).

**Q.** How did the EC50 [2] turn out when `CN(C)S(=O)(=O)Oc1cccc(C(=O)Nc2ccc(Cl)c(Cl)c2)c1` was run?
**A.** Its EC50 is > 180 µM (inactive).

**Q.** With `COC(=O)C1CN(C#N)N(c2ccc(Cl)cc2)C12c1ccccc1-c1ccccc12` (stereo not drawn) as the molecule, how does the CC50 [3] read?
**A.** The CC50 was 3.02 µM (active).

**Q.** `Nc1noc2cccc(-c3cccc(O)c3)c12` was tested. Which Ki [4] did it give?
**A.** Its Ki is 2 µM (active).

**Q.** And the Ki [5]?
**A.** The Ki was > 1.58 µM (inactive).

**Q.** And the Ki [6]?
**A.** Its Ki is > 1.58 µM (inactive).

**Q.** And the Ki [7]?
**A.** Its Ki is 20 µM (active).

**Q.** What about the Ki [8] of the same molecule?
**A.** Its Ki is > 7.94 µM (inactive).
